In paper PMC12396409, “Screening and hit evaluation of a microbial metabolite library against the pathogenic Plasmodium falciparum and Toxoplasma gondii parasites” (International Journal for Parasitology: Drugs and Drug …, 2025):
Like-named read-outs stand apart in the source and are kept apart here.

Key:
[1] = test system: T. gondii RH strain (RH-Tub-eYFP) tachyzoites; assay: microbe, parasite or virus in culture; format: cell-based, Toxoplasma gondii; conditions: 72 h; for percent parasite growth at 2 µg/mL: Toxoplasma gondii
[2] = test system: P. falciparum 3D7 parasites; assay: P. falciparum growth inhibition assay, 1-cycle (72 h treatment), SYBR DNA staining (library screen at 2 μg/mL and dose-response); format: cell-based, Plasmodium falciparum
[3] = test system: P. falciparum 3D7 parasites; assay: P. falciparum growth inhibition assay, 2-cycle (120 h treatment), delayed-death screen and dose-response; format: cell-based, Plasmodium falciparum
[4] = T. gondii, parasite screen 2 μg/mL, % growth, replicate 1
[5] = T. gondii, parasite screen 2 μg/mL, % growth, replicate 2
[6] = P. falciparum, 72 h, parasite screen 2 μg/mL, % growth, replicate 1
[7] = P. falciparum, 72 h, parasite screen 2 μg/mL, % growth, replicate 2
[8] = P. falciparum, 120 h, parasite screen 2 μg/mL, % growth, replicate 1
[9] = P. falciparum, 120 h, parasite screen 2 μg/mL, % growth, replicate 2
[10] = T. gondii, screen at 2 μg/mL, replicate 1, read-out: Tg_72h_%Growth_Rep1
[11] = T. gondii, screen at 2 μg/mL, replicate 2, read-out: Tg_72h_%Growth_Rep2
[12] = Plasmodium falciparum, 3D7, P. falciparum, 72 h, screen at 2 μg/mL, replicate 1, read-out: Pf_72h_%Growth_Rep1
[13] = Plasmodium falciparum, 3D7, P. falciparum, 72 h, screen at 2 μg/mL, replicate 2, read-out: Pf_72h_%Growth_Rep2
[14] = Plasmodium falciparum, 3D7, P. falciparum, 120 h, screen at 2 μg/mL, replicate 1, read-out: Pf_120h_%Growth_Rep1
[15] = Plasmodium falciparum, 3D7, P. falciparum, 120 h, screen at 2 μg/mL, replicate 2, read-out: Pf_120h_%Growth_Rep2

With `C=C1CC[C@H](OC(C)=O)C(C)(C)[C@@H]1CC/C(C)=C/CC/C(C)=C/Cc1c(O)cc(C)oc1=O` [Sartorypyrone A] the Tg_72h_%Growth_Rep1 [1, 4] was 82.97%, the Tg_72h_%Growth_Rep2 [1, 5] was 82.11% and the Pf_72h_%Growth_Rep1 [2, 6] was 32.17%. The Pf_72h_%Growth_Rep2 [2, 7] was 81.37%, the Pf_120h_%Growth_Rep1 [3, 8] was 16.39% and the Pf_120h_%Growth_Rep2 [3, 9] was 52.54%.

With `O=C(O)[C@H]1/C(=C/CO)O[C@@H]2CC(=O)N21` [Clavulanate potassium] the percent parasite growth at 2 µg/mL [1, 10] was 102%, the percent parasite growth at 2 µg/mL [1, 11] was 102% and the activity at 2 µg/mL [2, 12] was 85.1%. It also gave an activity at 2 µg/mL [2, 13] of 88.1%, an activity at 2 µg/mL [3, 14] of 88.4% and an activity at 2 µg/mL [3, 15] of 86.6%.

`CCC1OC2(CCC1C)CC1CC(CC=C(C)CC(C)C=CC=C3COC4C(=NO)C(C)=CC(C(=O)O1)C34O)O2` (stereo not drawn) [BIA-M1532] showed a Tg_72h_%Growth_Rep1 ([1]; T. gondii, parasite screen at 2 μg/mL, % growth, replicate 1) of 83.72%, a Tg_72h_%Growth_Rep2 ([1]; T. gondii, parasite screen at 2 μg/mL, % growth, replicate 2) of 81.98% and a Pf_72h_%Growth_Rep1 ([2]; P. falciparum 3D7, 72 h, parasite screen at 2 μg/mL, % growth, replicate 1) of 26.87%. The Pf_72h_%Growth_Rep2 ([2]; P. falciparum 3D7, 72 h, parasite screen at 2 μg/mL, % growth, replicate 2) was 18.08%, the Pf_120h_%Growth_Rep1 ([3]; P. falciparum 3D7, 120 h, parasite screen at 2 μg/mL, % growth, replicate 1) was 8.04% and the Pf_120h_%Growth_Rep2 ([3]; P. falciparum 3D7, 120 h, parasite screen at 2 μg/mL, % growth, replicate 2) was 16.57%.

With `C[C@H]1CCC[C@H](O)CCCCCc2cc(O)cc(O)c2C(=O)O1` [Zearalanol, alpha-] the Tg_72h_%Growth_Rep1 ([1]; T. gondii, screen at 2 μg/mL, replicate 1) was 162.37%, the Tg_72h_%Growth_Rep2 ([1]; T. gondii, screen at 2 μg/mL, replicate 2) was 92.02% and the Pf_72h_%Growth_Rep1 ([2]; P. falciparum, 72 h, screen at 2 μg/mL, replicate 1) was 80.84%. The Pf_72h_%Growth_Rep2 ([2]; P. falciparum, 72 h, screen at 2 μg/mL, replicate 2) was 78.13%, the Pf_120h_%Growth_Rep1 ([3]; P. falciparum, 120 h, screen at 2 μg/mL, replicate 1) was 88.76% and the Pf_120h_%Growth_Rep2 ([3]; P. falciparum, 120 h, screen at 2 μg/mL, replicate 2) was 84.84%.

In the case of `CC[C@H]1OC(=O)C[C@@H](O)[C@H](C)[C@@H](O[C@@H]2O[C@H](C)[C@@H](O)[C@H](N(C)C)[C@H]2O)[C@@H](CCN2C[C@H](C)C[C@H](C)C2)C[C@@H](C)C(=O)/C=C/C(C)=C/[C@@H]1CO[C@@H]1O[C@H](C)[C@@H](O)[C@@H](OC)[C@H]1OC` [Tilmicosin, reference compound], the percent parasite growth at 2 µg/mL [1, 10] is reported as 48.2%, the percent parasite growth at 2 µg/mL [1, 11] is reported as 37.2% and the activity at 2 µg/mL ([2]; Plasmodium falciparum, 3D7; P. falciparum, 2 μg/mL, 72 h; read-out: 1) Growth (%) at 72 h) is reported as 43.1%. The activity at 2 µg/mL [2, 12] was 45%, the activity at 2 µg/mL [2, 13] was 41.2% and the “3) Fold change (72 h/120 h)” value ([3]; P. falciparum, growth at 72 h / growth at 120 h, 2 μg/mL) was 3.0. For the same compound, the activity at 2 µg/mL ([3]; Plasmodium falciparum, 3D7; P. falciparum, 2 μg/mL, 120 h; read-out: 2) Growth (%) at 120 h) was 14.5%, the activity at 2 µg/mL [3, 14] was 22.4% and the activity at 2 µg/mL [3, 15] was 6.63%.

In the case of `Cc1c2c(c(O)c3c(O)cccc13)C(=O)O[C@@H]2[C@@H]1[C@H](O)C(=O)C(C(N)=O)=C(O)[C@H]1N(C)C` [Apooxytetracycline, alpha-], the Tg_72h_%Growth_Rep1 ([1]; library screen at 2 μg/mL, % growth, replicate 1) is reported as 81.07%, the Tg_72h_%Growth_Rep2 ([1]; library screen at 2 μg/mL, % growth, replicate 2) is reported as 111.56% and the Pf_72h_%Growth_Rep1 ([2]; library screen at 2 μg/mL, 72 h, % growth, replicate 1) is reported as 86.78%. The Pf_72h_%Growth_Rep2 ([2]; library screen at 2 μg/mL, 72 h, % growth, replicate 2) was 89.73%, the Pf_120h_%Growth_Rep1 ([3]; library screen at 2 μg/mL, 120 h, % growth, replicate 1) was 91.28% and the Pf_120h_%Growth_Rep2 ([3]; library screen at 2 μg/mL, 120 h, % growth, replicate 2) was 90.91%.

Compound `O=c1cc(CO)occ1O` [BIA-K1696] has a Tg_72h_%Growth_Rep1 ([1]; T. gondii RH, library screen at 2 μg/mL, % growth, replicate 1) of 111.73%, a Tg_72h_%Growth_Rep2 ([1]; T. gondii RH, library screen at 2 μg/mL, % growth, replicate 2) of 90.68% and a Pf_72h_%Growth_Rep1 ([2]; P. falciparum 3D7, 72 h, library screen at 2 μg/mL, % growth, replicate 1) of 83.60%. It also gave a Pf_72h_%Growth_Rep2 ([2]; P. falciparum 3D7, 72 h, library screen at 2 μg/mL, % growth, replicate 2) of 96.29%, a Pf_120h_%Growth_Rep1 ([3]; P. falciparum 3D7, 120 h, library screen at 2 μg/mL, % growth, replicate 1) of 76.01% and a Pf_120h_%Growth_Rep2 ([3]; P. falciparum 3D7, 120 h, library screen at 2 μg/mL, % growth, replicate 2) of 110.07%.

With `Cc1nnc2n1-c1sc(CCC(=O)N3CCOCC3)cc1C(c1ccccc1Cl)=NC2` [WEB 2086] the percent parasite growth at 2 µg/mL [1, 10] was 91.8%, the percent parasite growth at 2 µg/mL [1, 11] was 110% and the activity at 2 µg/mL [2, 12] was 87.3%. For the same compound, the activity at 2 µg/mL [2, 13] was 87.4%, the activity at 2 µg/mL [3, 14] was 157% and the activity at 2 µg/mL [3, 15] was 84.4%.

`C/C(=C\c1csc(C)n1)[C@@H]1C[C@@H]2O[C@]2(C)CCC[C@H](C)[C@H](O)[C@@H](C)C(=O)C(C)(C)[C@@H](O)CC(=O)O1` [Epothilone B] was tested, and the percent parasite growth at 2 µg/mL ([1]; library screen at 2 μg/mL, % growth, replicate 1, read-out: Tg_72h_%Growth_Rep1) was 5.99%, the percent parasite growth at 2 µg/mL ([1]; library screen at 2 μg/mL, % growth, replicate 2, read-out: Tg_72h_%Growth_Rep2) was 3.71% and the activity at 2 µg/mL ([2]; Plasmodium falciparum, 3D7, library screen at 2 μg/mL, 72 h, % growth, replicate 1, read-out: Pf_72h_%Growth_Rep1) was 31.4%. It also gave an activity at 2 µg/mL ([2]; Plasmodium falciparum, 3D7, library screen at 2 μg/mL, 72 h, % growth, replicate 2, read-out: Pf_72h_%Growth_Rep2) of -0.31%, an activity at 2 µg/mL ([3]; Plasmodium falciparum, 3D7, library screen at 2 μg/mL, 120 h, % growth, replicate 1, read-out: Pf_120h_%Growth_Rep1) of 5.18% and an activity at 2 µg/mL ([3]; Plasmodium falciparum, 3D7, library screen at 2 μg/mL, 120 h, % growth, replicate 2, read-out: Pf_120h_%Growth_Rep2) of 3.63%.

Work on `Cc1cc(O)c2c3c1C(=O)C=C1C(C)(C)C(=O)c4c(O)cc(O)c(c4C13O)C2=O` (stereo not drawn) [Resistoflavine] yielded a Tg_72h_%Growth_Rep1 [1, 4] of 250.44%, a Tg_72h_%Growth_Rep2 [1, 5] of 135.44% and a Pf_72h_%Growth_Rep1 [2, 6] of 97.04%. It also gave a Pf_72h_%Growth_Rep2 [2, 7] of 109.63%, a Pf_120h_%Growth_Rep1 [3, 8] of 116.77% and a Pf_120h_%Growth_Rep2 [3, 9] of 93.07%.
